# What was measured:
# PUMA = experiment: Expression of PUMA protein in COLO 205 cells, Western blot; assay type: cell-based; conditions: eight hours after treatment, Western blot (FIG. 1)
# Description: (§1) To identify an effect of aripiprazole on the expression of NOXA and PUMA proteins in cancer cells, COLO 205 cells were treated with aripiprazole. Eight hours later, proteins were extracted from cells after washing with PBS, and a level of NOXA and PUMA expression was checked via Western blot.
# NOXA = experiment: Expression of NOXA protein in COLO 205 cells, Western blot; assay type: cell-based; conditions: eight hours after treatment, Western blot (FIG. 1)
# Description: as §1
smiles,measurement,setting,value
O=C1CCc2ccc(OCCCCN3CCN(c4cccc(Cl)c4Cl)CC3)cc2N1 [aripiprazole],expression of PUMA protein,PUMA,increased
same,expression of NOXA protein,NOXA,increased
